Assay results published in the RepoRT retention time repository.

Assay: RP, Waters ACQUITY UPLC BEH C8, 100 × 2.1 mm, 1.7 µm, 55 °C, 0.6 mL/min, estimated dead time 0.37 min; A: 50% water + 25% acetonitrile + 25% isopropanol + 0.05% acetic acid + 20 µM phosphoric acid + 5 mM ammonium acetate; B: 50% acetonitrile + 50% isopropanol + 0.05% acetic acid + 5 mM ammonium acetate; gradient (min/%B) 0/1 0.1/1 2/30 11.5/90 12/99.9 12.5/99.9 12.55/65 12.65/30 12.75/1 12.95/1 13.25/1
Conditions: stereoisomer not certain

SMILES | LC retention time [min]
CCCCCCCCCCCCCCCCCCCC(=O)OC(CC(=O)[O-])C[N+](C)(C)C (configuration not stated) [Arachidyl carnitine CAR(20:0)] | 2.88
CCCCCCCCCCCCCCCCOCC(COP(=O)([O-])OCC[N+](C)(C)C)OC(=O)CCCCCCCCCCCCCCC (configuration not stated) [PC(O-16:0/16:0)] | 6.81
CCCCCCCCCCCCCCCCCC(=O)OC(CO)COP(=O)([O-])OCC[N+](C)(C)C (configuration not stated) [LPC(0:0/18:0)] | 2.3
CCCCCCCCCCCCCCCC(=O)OCC(O)COP(=O)(O)O (configuration not stated) [LPA(16:0/0:0)] | 1.58
CCCCCCCCCCCCCC=CC(O)C(COP(=O)([O-])OCC[N+](C)(C)C)NC(=O)CCCCCCCCCCCCCCCCCCC (configuration not stated) [SM(d18:1/20:0)] | 7.12
CCCCCCCCCCCCCCCCCCCCCCCC(=O)OCC(O)COP(=O)([O-])OCC[N+](C)(C)C (configuration not stated) [LPC(24:0/0:0)] | 4.52
CCCCCCCCCCCCCCCCCCC(=O)OCC(O)COP(=O)([O-])OCC[N+](C)(C)C (configuration not stated) [LPC(19:0/0:0)] | 2.7
CCCCCCCCCCCCCCCC(=O)OCC(CO)OC(=O)CCCCCCCCCCCCCCC (configuration not stated) [DG(16:0/16:0)] | 7.6
CCCCCCCCCCCC=CC(O)C(CO)NC(=O)CCCCCCCCCCCCCCCCCCC (configuration not stated) [Cer(d16:1/20:0)] | 7.27
CCCCCCCCCCCCCCCCCCCCCC(=O)NC(CO)C(O)CCCCCCCCCCCCCCC (configuration not stated) [Cer(d18:0/22:0)] | 8.61
CC(C)CCCC(C)C1CCC2C3CC=C4CC(O)CCC4(C)C3CCC12C (configuration not stated) [Cholesterol] | 4.54
CCCCCCCCCCCCCCC=COCC(O)COP(=O)([O-])OCC[N+](C)(C)C (configuration not stated) [LPC(P-16:0/0:0)] | 2.09
CCCCCCCCCCCCCCCC(=O)NC(COP(=O)([O-])OCC[N+](C)(C)C)C(O)CCCCCCCCCCCCCCC (configuration not stated) [SM(d18:0/16:0)] | 5.94
CCCCCCCCCCCCCCCCCC(=O)OC(CO)COP(=O)(O)OCCN (configuration not stated) [LPE(0:0/18:0)] | 2.38
CCCCCCCCCCCCCC=CC(O)C(COP(=O)([O-])OCC[N+](C)(C)C)NC(=O)CCCCCCCCCCCCCCCCC (configuration not stated) [SM(d18:1/18:0)] | 6.41
CCCCCCCCCCCCCCCCC(=O)OCC(O)COP(=O)([O-])OCC[N+](C)(C)C (configuration not stated) [LPC(17:0/0:0)] | 2.14
CCCCCCCCCCCCCC=CC(O)C(CO)NC(=O)CCCCCCCCCCCCCCC (configuration not stated) [Cer(d18:1/16:0)] | 6.5
CCCCCCCCCCCC=CC(O)C(CO)NC(=O)CCCCCCCCCCCCCCCCCCCCC (configuration not stated) [Cer(d16:1/22:0)] | 7.93
CCCCCCCCCCCCCC=CC(O)C(CO)NC(=O)CCCCCCCCCCCCCCCCCCC (configuration not stated) [Cer(d18:1/20:0)] | 7.86
CCCCCCCCCCCCCCCC(=O)OCC(O)COP(=O)([O-])OCC[N+](C)(C)C (configuration not stated) [LPC(16:0/0:0)] | 1.87
CCCCCCCCCCCCCCCCCCOCC(O)COP(=O)([O-])OCC[N+](C)(C)C (configuration not stated) [LPC(O-18:0/0:0)] | 2.66
CCCCCCCCCCCCCC=CC(O)C(CO)NC(=O)CCCCCCCCCCCCCCCCCCCCCCC (configuration not stated) [Cer(d18:1/24:0)] | 9
CCCCCCCCCCCC=CC(O)C(COP(=O)([O-])OCC[N+](C)(C)C)NC(=O)CCCCCCCCCCCCCCCCCCCCCC (configuration not stated) [SM(d16:1/23:0)] | 7.57

SMILES | LC retention time [min]
CCCCCCCC(=O)OC(CC(=O)O)C[N+](C)(C)C (configuration not stated) [Octanoylcarnitine CAR(8:0)] | 0.462
CCCCCCCCCCCCCC(=O)OC(CC(=O)[O-])C[N+](C)(C)C (configuration not stated) [Tetradecanoylcarnitine CAR(14:0)] | 1.26
CCCCCCCCCCCCCCCCOCC(COP(=O)([O-])OCC[N+](C)(C)C)OC(=O)CCCCCCCCCCCCC (configuration not stated) [PC(O-16:0/14:0)] | 6.13
CCCCCCCCCCCCCCCC(=O)OC(CO)COP(=O)([O-])OCC[N+](C)(C)C (configuration not stated) [LPC(0:0/16:0)] | 1.75
CC(C)=CCCC(C)=CCCC(C)=CC=CC(C)=CC=CC=C(C)C=CC=C(C)CCC=C(C)CCC=C(C)C [Zeta-carotene] | 8.28
CCCCCCCCCC(=O)OC(CC(=O)[O-])C[N+](C)(C)C (configuration not stated) [Decanoylcarnitine CAR(10:0)] | 0.609
CCCCCCCCCCCCCCCCCCCCCCCC(=O)NC(CO)C(O)CCCCCCCCCCCCCCC (configuration not stated) [Cer(d18:0/24:0)] | 9.14
CC(C)=CCCC(C)=CC=CC(C)=CC=CC(C)=CC=CC=C(C)C=CC=C(C)C=CC1=C(C)CCCC1(C)C [Gamma-carotene] | 8.22
CCCCCCCCCCCCCCCC(=O)OCC(COP(=O)([O-])OCC[N+](C)(C)C)OC(=O)CCCCCCCCCCCCCCC (configuration not stated) [PC(16:0/16:0)] | 6.38
CCCCCCCCCCCCCCCCOCC(COP(=O)([O-])OCC[N+](C)(C)C)OC(=O)CCCCCCCCCCCCCC (configuration not stated) [PC(O-16:0/15:0)] | 6.47
CCCCCCCCCCCCCCC=CC(O)C(COP(=O)([O-])OCC[N+](C)(C)C)NC(=O)CCCCCCCCCCCCCCCCC (configuration not stated) [SM(d19:1/18:0)] | 6.66
CCCCCCCCCCCC=CC(O)C(COP(=O)([O-])OCC[N+](C)(C)C)NC(=O)CCCCCCCCCCCCCCCCCCCCCCC (configuration not stated) [SM(d16:1/24:0)] | 7.9
CCCCCCCCCCCCCC=CC(O)C(COC1OC(CO)C(OC2OC(CO)C(O)C(O)C2O)C(O)C1O)NC(=O)CCCCCCCCCCCCCCC (configuration not stated) [LacCer(d18:1/16:0)] | 5.75
CCCCCCCCCCCCCCCC(=O)OCC(O)COP(=O)(O)OCCN (configuration not stated) [LPE(16:0/0:0)] | 1.93
CCCCCCCCCCCCCC=CC(O)C(N)COP(=O)(O)O (configuration not stated) [Sphingosine-1-phosphate] | 1.52
CCCCCCCCCCCCCCCCCC(=O)OCC(O)COP(=O)([O-])OCC[N+](C)(C)C (configuration not stated) [LPC(18:0/0:0)] | 2.42
CCCCCCCCCCCCCCCCCC(=O)OCC(COP(=O)([O-])OCC[N+](C)(C)C)OC(=O)CCCCCCCCCCCCCCCCC (configuration not stated) [PC(18:0/18:0)] | 7.67
CCCCCCCCCCCCCC=CC(O)C(COP(=O)([O-])OCC[N+](C)(C)C)NC(=O)CCCCCCCCCCCCCCCCCCCCCC (configuration not stated) [SM(d18:1/23:0)] | 8.1
CCCCCCCCCCCCCCCC(=O)OC(CC(=O)[O-])C[N+](C)(C)C (configuration not stated) [Palmitoylcarnitine CAR(16:0)] | 1.75
CCCCCCCCCCCCCCCCCCCCCCCCCC(=O)OC(CC(=O)[O-])C[N+](C)(C)C (configuration not stated) [Hexacosanoylcarnitine CAR(26:0)] | 5.15
CCCCCCCCCCCCCCCCC=COCC(O)COP(=O)(O)OCCN (configuration not stated) [LPE(P-18:0/0:0)] | 2.75
CCCCCCCCCCCCCC=CC(O)C(CO)NC(=O)CCCCCCCCCCCCCCCCCCCCCCCC (configuration not stated) [Cer(d18:1/25:0)] | 9.26
CC(C=CC=C(C)C=CC1=C(C)CCCC1(C)C)=CC=CC=C(C)C=CC=C(C)C=CC1=C(C)CC(O)CC1(C)C (stereo not drawn) [Beta-cryptoxanthin] | 6.41

SMILES | LC retention time [min]
CCCCCCCCCCCCCCCCCCCC(=O)OCC(O)COP(=O)([O-])OCC[N+](C)(C)C (configuration not stated) [LPC(20:0/0:0)] | 3.02
CCCCCCCCCCCCCC=CC(O)C(COP(=O)([O-])OCC[N+](C)(C)C)NC(=O)CCCCCCCCCCCCCCCCCCCCCCC (configuration not stated) [SM(d18:1/24:0)] | 8.4
CCCCCCCCCCCCCC=CC(O)C(COP(=O)([O-])OCC[N+](C)(C)C)NC(=O)CCCCCCCCCCCCCCCCCCCCC (configuration not stated) [SM(d18:1/22:0)] | 7.79
CCCCCCCCCCCCCCCCC(=O)OC(COC(=O)CCCCCCCCCCCCCCC)COP(=O)([O-])OCC[N+](C)(C)C (configuration not stated) [PC(16:0/17:0)] | 6.63
CCCCCCCCCCCCCCCC(=O)OCC(COP(=O)([O-])OCC[N+](C)(C)C)OC(=O)CCCCCCCCCCCCCC (configuration not stated) [PC(16:0/15:0)] | 5.97
CCCCCCCCCCCCCC(=O)OCC(O)COP(=O)([O-])OCC[N+](C)(C)C (configuration not stated) [LPC(14:0/0:0)] | 1.36
CC(C=CC=C(C)C=CC1=C(C)CC(O)CC1(C)C)=CC=CC=C(C)C=CC=C(C)C=CC1C(C)=CC(O)CC1(C)C (configuration not stated) [Luteine] | 3.74
CCCCCCCCCCCCCCCCC=COCC(O)COP(=O)([O-])OCC[N+](C)(C)C (configuration not stated) [LPC(P-18:0/0:0)] | 2.65
CCCCCCCCCCCCCC(=O)OC(CO)COP(=O)([O-])OCC[N+](C)(C)C (configuration not stated) [LPC(0:0/14:0)] | 1.27
CCCCCCCCCCCC=CC(O)C(COP(=O)([O-])OCC[N+](C)(C)C)NC(=O)CCCCCCCCCCCCCCCCCCC (configuration not stated) [SM(d16:1/20:0)] | 6.5
CCCCCCCCCCCCCC=CC(O)C(CO)NC(=O)CCCCCCCCCCCCCCCCC (configuration not stated) [Cer(d18:1/18:0)] | 7.19
CC1=C(/C=C/C(C)=C/C=C/C(C)=C/C=C/C=C(C)/C=C/C=C(C)/C=C/C2=C(C)CCCC2(C)C)C(C)(C)CCC1 [Beta-carotene] | 8.56
CCCCCCCCCCCCCC=CC(O)C(COC1OC(CO)C(OC2OC(CO)C(O)C(O)C2O)C(O)C1O)NC(=O)CCCCCCCCCCCCCCCCCCCCCCC (configuration not stated) [LacCer(d18:1/24:0)] | 8.4
CCCCCCCCCCCCCCC=CC(O)C(COP(=O)([O-])OCC[N+](C)(C)C)NC(=O)CCCCCCCCCCCCCCC (configuration not stated) [SM(d19:1/16:0)] | 5.95
CC(C=CC1=C(C)CCCC1(C)C)=CC=CC(C)=CCO [Retinol] | 2.3
C=C1C=CCC(C)(C)C1C=CC(C)=CC=CC(C)=CC=CC=C(C)C=CC=C(C)C=CC1=C(C)CC(O)CC1(C)C (configuration not stated) [Anhydrolutein I] | 5.77
CCCCCCCCCCCC(=O)OC(CC(=O)[O-])C[N+](C)(C)C (configuration not stated) [Lauroylcarnitine CAR(12:0)] | 0.876
CCCCCCCCCCCCCCCCCCCCOCC(O)COP(=O)([O-])OCC[N+](C)(C)C (configuration not stated) [LPC(O-20:0/0:0)] | 3.31
CCCCCCCCCCCCCCCCCCCCCCCC(=O)OC(CC(=O)[O-])C[N+](C)(C)C (configuration not stated) [Tetracosanoylcarnitine CAR(24:0)] | 4.34
CCCCCCCCCCCCCCCCCC(=O)OC(CC(=O)[O-])C[N+](C)(C)C (configuration not stated) [Stearoylcarnitine CAR(18:0)] | 2.3
CCCCCCCCCCCCCC=CC(O)C(COP(=O)([O-])OCC[N+](C)(C)C)NC(=O)CCCCCCCCCCCCCCC (configuration not stated) [SM(d18:1/16:0)] | 5.68
